Experimental data reported in US6680340B2, “Anti-hypercholesterolemic drug combination” (Merck & Co., Inc., priority 2000, dated 2004).

Columns and labels:
[1] = tested on: Serum cholesterol; test: Serum cholesterol lowering in dogs dosed 15 days with fenofibrate, CGS23425 or the combination; assay type: in vivo
Method: Dogs were administered 50 mg/kg/day fenofibrate alone, 10 μg/kg/day CGS23425 alone, or the combination of 50 mg/kg/day fenofibrate +10 μg/kg/day CGS23425 for a period of 15 days. Cholesterol lowering was measured on treatment days 6, 8, 10, 13, 14, and 15.

[2] = tested on: Serum total cholesterol; test: Serum total cholesterol lowering in rats dosed 9 days with CGS23425 in diet with and without fenofibrate
Method: Male Sprague-Dawley rats (wt 125-150 g, 10 per group) were acclimated for one week with a normal chow (Purina #5001 powder) and had free access to drinking water. The animals, with increased weight to about 200 to 250 grams, were dosed 9 days with various doses of CGS23425 (0, 0.005, 0.05 and 0.5 ppm in diet, where total diet consumption was about 10 to 15 grams per day) with and without the presence of 25 mg/kg of body weight of fenofibrate given via oral gavage once a day. After the dosing period, the animals were fasted for 18 hours and euthanized and the blood was withdrawn via cardiac puncture.

Row | Compound | Serum cholesterol lowering in dogs (% reduction) ([1]; CGS23425 10 μg/kg/day alone, treatment day 6) | Serum cholesterol lowering in dogs (% reduction) ([1]; CGS23425 10 μg/kg/day alone, treatment day 8) | Serum cholesterol lowering in dogs (% reduction) ([1]; CGS23425 10 μg/kg/day alone, treatment day 10) | Serum cholesterol lowering in dogs (% reduction) ([1]; CGS23425 10 μg/kg/day alone, treatment day 13) | Serum cholesterol lowering in dogs (% reduction) ([1]; CGS23425 10 μg/kg/day alone, treatment day 14) | Serum cholesterol lowering in dogs (% reduction) ([1]; CGS23425 10 μg/kg/day alone, treatment day 15) | Serum cholesterol lowering in rats (% reduction) ([2]; CGS23425 0.005 ppm in diet alone (fenofibrate 0 mg/kg)) | Serum cholesterol lowering in rats (% reduction) ([2]; CGS23425 0.05 ppm in diet alone (fenofibrate 0 mg/kg)) | Serum cholesterol lowering in rats (% reduction) ([2]; CGS23425 0.5 ppm in diet alone (fenofibrate 0 mg/kg)) | Serum cholesterol lowering in dogs (% reduction) ([1]; fenofibrate 50 mg/kg/day alone, treatment day 6) | Serum cholesterol lowering in dogs (% reduction) ([1]; fenofibrate 50 mg/kg/day alone, treatment day 8) | Serum cholesterol lowering in dogs (% reduction) ([1]; fenofibrate 50 mg/kg/day alone, treatment day 10) | Serum cholesterol lowering in dogs (% reduction) ([1]; fenofibrate 50 mg/kg/day alone, treatment day 13) | Serum cholesterol lowering in dogs (% reduction) ([1]; fenofibrate 50 mg/kg/day alone, treatment day 14) | Serum cholesterol lowering in dogs (% reduction) ([1]; fenofibrate 50 mg/kg/day alone, treatment day 15) | Serum cholesterol lowering in rats (% reduction) ([2]; fenofibrate 25 mg/kg oral gavage once a day alone (CGS23425 0 ppm), fasted 18 hours) | Serum cholesterol lowering in rats (% reduction) ([2]; fenofibrate 25 mg/kg oral gavage once a day alone (CGS23425 0 ppm), fasted 18 hours, listed as fenofibrate)
1 | Cc1cc(NC(=O)C(=O)O)cc(C)c1Oc1ccc(O)c(C(C)C)c1 [CGS23425, N-[3,5-dimethyl-4-(4′-hydroxy-3′-isopropylphenoxy)-phenyl]-oxamic acid] | 13 ± 1.2 | 15.4 ± 2.3 | 18.4 ± 3.0 | 22.9 ± 2.5 | 21.1 ± 3.9 | 24.3 ± 1.7 | 4 ± 6 | 9±4 | 3 ± 7 | – | – | – | – | – | – | – | –
2 | CC(C)OC(=O)C(C)(C)Oc1ccc(C(=O)c2ccc(Cl)cc2)cc1 [Fenofibrate, fenofibrate] | – | – | – | – | – | – | – | – | – | 0.1 ± 2.5 | 3.5 ± 1.8 | 8.6 ± 3.4 | 12.1 ± 4.3 | 12.4 ± 7.5 | 14.3 ± 4.0 | 12 ± 5 | 12±5
